This is an account of results in patent US7700277B2, “Use of polymorphisms in human OATP-C associated with an effect on statin pharmacokinetics in humans in statin therapy” (AstraZeneca AB, priority 2003, dated 2010).

Data set [1] deals with T1, OATP-C (Homo sapiens, UniProt Q9Y6L6).
T1 sequence (Q9Y6L6 1-691): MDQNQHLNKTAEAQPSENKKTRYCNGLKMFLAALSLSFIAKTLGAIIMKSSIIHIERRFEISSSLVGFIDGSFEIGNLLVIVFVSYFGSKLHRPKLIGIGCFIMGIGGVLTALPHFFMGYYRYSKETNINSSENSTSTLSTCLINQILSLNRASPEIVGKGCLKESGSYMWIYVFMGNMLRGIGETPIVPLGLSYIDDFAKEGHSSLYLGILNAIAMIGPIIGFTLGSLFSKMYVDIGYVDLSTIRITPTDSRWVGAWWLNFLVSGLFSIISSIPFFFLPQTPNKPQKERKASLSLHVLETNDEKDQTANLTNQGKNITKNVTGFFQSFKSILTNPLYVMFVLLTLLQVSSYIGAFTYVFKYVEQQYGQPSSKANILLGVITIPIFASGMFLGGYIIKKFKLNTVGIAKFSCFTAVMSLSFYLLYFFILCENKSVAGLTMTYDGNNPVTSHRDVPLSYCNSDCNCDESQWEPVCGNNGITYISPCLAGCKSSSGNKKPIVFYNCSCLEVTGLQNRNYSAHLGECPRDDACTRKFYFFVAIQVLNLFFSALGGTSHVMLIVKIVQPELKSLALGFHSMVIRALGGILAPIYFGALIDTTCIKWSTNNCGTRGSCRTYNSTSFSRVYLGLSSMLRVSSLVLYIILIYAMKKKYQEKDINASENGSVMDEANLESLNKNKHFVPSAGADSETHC
The settings on record: literature reports (Brown 2001, in vitro; Hsiang 1999); cited from earlier work.

Data set [2] deals with T2, OATP-C (Homo sapiens, UniProt Q9Y6L6, N130D/V174A).
T2 construct: host or cells: human volunteers (in vivo)
T2 sequence (Q9Y6L6 1-691 N130D/V174A): T1 sequence (Q9Y6L6 1-691) with N130D, V174A
To be noted: Japanese healthy volunteers; Nishizato 2003; cited from earlier work.

In data set [3] the test system is OATP-C. To be noted: cohort of healthy volunteers; Niemi 2004; cited from earlier work.
In data set [4] the test system is OATP-C. The experiment in a line: Dose-normalised plasma rosuvastatin concentrations by OATP-C genotype/haplotype in patients treated for 6 weeks. Format: in vivo, human. From the text:
In brief, the OATP-C gene was sequenced in 79 human clinical trial subjects. 52 of these patients had received rosuvastatin for at least 6 weeks for dislipidaemic disease and had plasma PK measurements taken after 6 weeks of treatment.
The promoter, exons and 3′ untranslated regions of OATP-C were fully sequenced by DNA terminator sequencing in DNA collected from 79 subjects in clinical trials. Sequencing traces were used to record the genotypes for known (i.e. available in the literature or SNP databases) SNPs in OATP-C. Some novel SNPs were found in the promoter and 3′UTR region of OATP-C.
Mean dose-normalised plasma rosuvastatin concentrations were determined for the genotypes for each polymorphic variant in the OATP-C gene. OATP-C genotype data for 3 SNPs, namely amino acid position 130 Asparagine→Aspartic acid (Asn130Asp), 155 Proline→Threonine (Pro 155Thr) and 174 Valine→Alanine (Val174Ala), was utilised to determine the haplotype pair for each subject. Mean dose-normalised plasma rosuvastatin concentrations were determined for the subjects grouped by haplotype pair.
All consenting subjects treated with rosuvastatin (n=271), from the 2 clinical trials including the original 52 patients, were subsequently genotyped, using TaqMan™, for OATP-C variants. Data for SNPs causing the N130D, P155T and V174A variants were utilised to assign OATPC haplotype pairs to each subject, as previously described.

Substitutions are numbered along the chain they refer to.

With `CC[C@H](C)C(=O)O[C@H]1C[C@H](O)C=C2C=C[C@H](C)[C@H](CC[C@@H](O)C[C@@H](O)CC(=O)O)[C@H]21` [pravastatin], the “substrate / transport by OATP-C” value on OATP-C [1] was “actively transported”. Besides, at OATP-C [2], the “effect of OATPC*15 allele (N130D and V174A) on pharmacokinetics” value is reported as “had an effect”. Moreover, the “correlation between PK and a haplotype containing a promoter SNP” value with OATP-C [3] was “significant correlation”.
Consider `CC(C)c1nc(N(C)S(C)(=O)=O)nc(-c2ccc(F)cc2)c1/C=C/[C@@H](O)C[C@@H](O)CC(=O)O` [rosuvastatin], for which, in the data set with OATP-C [4] (FIG. 1, 52 subjects, Val174Ala heterozygote vs wild-type homozygote, after 6 weeks of treatment), the “dose-normalised plasma rosuvastatin values, 174Ala variant vs wild type” value was “higher plasma concentrations”. In addition, the “dose-normalised plasma rosuvastatin values, OATP-C*15 haplotype vs other haplotypes” value in the data set on OATP-C [4] (FIG. 2, haplotype pairs, after 6 weeks of treatment) was “higher plasma concentrations”. Besides, the “mean plasma rosuvastatin levels (dose normalised), Val174Ala heterozygous vs Val/Val” value in the data set on OATP-C [4] (FIG. 3, patients treated 6 weeks with different doses, most evident at higher doses) was “higher”. In the data set with OATP-C [4] (FIG. 4, two independent phase III studies), the “mean plasma rosuvastatin concentrations, az0005537 (-118A>C) A/C heterozygous vs A/A” value was “trend for an increase”. In addition, the “mean plasma rosuvastatin concentrations, 174A variant with az0005537 C allele vs az0005537 A allele” value in the data set with OATP-C [4] (FIG. 5, combined 2 phase III studies, V174A heterozygotes stratified by promoter genotype) is recorded as “tendency for higher mean plasma rosuvastatin concentrations”. Moreover, in the data set with OATP-C [4] (patients, dose-normalised plasma levels), the “effect of OATP-C variants N130D and P155T on pharmacokinetic disposition” value is reported as “do not appear to affect”. For the same compound, the “substrate / transport by OATP-C” value at OATP-C [1] is recorded as “substrate for OATP-C”.
